Data published in the supplement of paper PMC10307832.

Tests used:
Assay in all cases: relative viability (nuclei count vs DMSO), 5 days (fraction); higher = more cells survive
NVP-TAE684 + Pemetrexed = compound: COc1cc(N2CCC(N3CCN(C)CC3)CC2)ccc1Nc1ncc(Cl)c(Nc2ccccc2S(=O)(=O)C(C)C)n1 [NVP-TAE684] + Nc1nc2[nH]cc(CCc3ccc(C(=O)N[C@@H](CCC(=O)O)C(=O)O)cc3)c2c(=O)[nH]1 [Pemetrexed] (partner 0.2 µM)
Method in brief: (§1)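 For relative viability, nuclei counts in treated wells were divided by those in vehicle wells. Lung cancer cell lines had been pin-tool dosed in 1536-well plates the day after seeding and cultured for 5 days, then fixed and stained in one step (final 0.05% Triton X-100, 1% formaldehyde, 1 ug/ml Hoechst) and imaged at 4×. Doses were one drug alone or a fixed anchor-drug dose plus five library-drug doses (not always all listed) in √10 steps, and values are duplicate-plate medians.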

[1] = compound: C1=CC=C2C(=C1)N=C(S2)C(C#N)C3=NC(=NC=C3)NCCC4=CN=CC=C4 + O=C(c1cc(Cc2n[nH]c(=O)c3ccccc23)ccc1F)N1CCN(C(=O)C2CC2)CC1 [Olaparib] (partner 8 µM)
Method in brief: as §1

NVP-TAE684 + Foretinib = compound: COc1cc(N2CCC(N3CCN(C)CC3)CC2)ccc1Nc1ncc(Cl)c(Nc2ccccc2S(=O)(=O)C(C)C)n1 [NVP-TAE684] + COc1cc2c(Oc3ccc(NC(=O)C4(C(=O)Nc5ccc(F)cc5)CC4)cc3F)ccnc2cc1OCCCN1CCOCC1 [Foretinib] (partner 0.25 µM)
Method in brief: as §1

NVP-TAE684 + Luminespib = compound: COc1cc(N2CCC(N3CCN(C)CC3)CC2)ccc1Nc1ncc(Cl)c(Nc2ccccc2S(=O)(=O)C(C)C)n1 [NVP-TAE684] + CCNC(=O)c1noc(-c2cc(C(C)C)c(O)cc2O)c1-c1ccc(CN2CCOCC2)cc1 [Luminespib] (partner 0.01 µM)
Method in brief: as §1

CUDC-101 + Pemetrexed = compound: C#Cc1cccc(Nc2ncnc3cc(OC)c(OCCCCCCC(=O)NO)cc23)c1 [CUDC-101] + Nc1nc2[nH]cc(CCc3ccc(C(=O)N[C@@H](CCC(=O)O)C(=O)O)cc3)c2c(=O)[nH]1 [Pemetrexed] (partner 0.2 µM)
Method in brief: as §1

| Cell Line | relative viability (NVP-TAE684 + Pemetrexed; first compound 0.2 µM) | relative viability (NVP-TAE684 + Pemetrexed; first compound 0.6325 µM) | relative viability (NVP-TAE684 + Pemetrexed; first compound 2 µM) | relative viability ([1]; first compound 0.005 µM) | relative viability ([1]; first compound 0.01581 µM) | relative viability ([1]; first compound 0.05 µM) | relative viability ([1]; first compound 0.1581 µM) | relative viability ([1]; first compound 0.5 µM) | relative viability (NVP-TAE684 + Foretinib; first compound 0.2 µM) | relative viability (NVP-TAE684 + Foretinib; first compound 0.6325 µM) | relative viability (NVP-TAE684 + Foretinib; first compound 2 µM) | relative viability (NVP-TAE684 + Luminespib; first compound 0.2 µM) | relative viability (NVP-TAE684 + Luminespib; first compound 0.6325 µM) | relative viability (NVP-TAE684 + Luminespib; first compound 2 µM) | relative viability (CUDC-101 + Pemetrexed; first compound 0.01 µM) | relative viability (CUDC-101 + Pemetrexed; first compound 0.03162 µM) | relative viability (CUDC-101 + Pemetrexed; first compound 0.1 µM) | relative viability (CUDC-101 + Pemetrexed; first compound 0.3162 µM) | relative viability (CUDC-101 + Pemetrexed; first compound 1 µM) |
| --- | --- | --- | --- | --- | --- | --- | --- | --- | --- | --- | --- | --- | --- | --- | --- | --- | --- | --- | --- |
| HOP-62 | 0.34 | 0.392 | 0.345 | 0.741 | 0.368 | 0.408 | 0.265 | 0.191 | 1.21 | 1.12 | 1.12 | 1.03 | 0.816 | 0.882 | 0.295 | 0.355 | 0.346 | 0.349 | 0.311 |
| NCI-H2085 | 1.01 | 0.874 | 0.813 | 0.765 | 0.765 | 0.738 | 0.778 | 0.794 | 0.987 | 0.967 | 0.485 | 0.435 | 0.39 | 0.294 | 0.779 | 0.665 | 0.89 | 0.959 | 0.63 |
| NCI-H2087 | 0.679 | 0.707 | 0.57 | 0.385 | 0.562 | 0.509 | 0.759 | 0.433 | 1.05 | 1.2 | 0.638 | 0.146 | 0.205 | 0.151 | 0.681 | 0.699 | 0.648 | 0.605 | 0.678 |
| NCI-H1395 | 0.971 | 0.831 | 0.823 | 0.476 | – | 0.475 | 0.457 | 0.541 | 1.1 | – | 0.807 | 0.686 | 0.834 | 0.732 | 0.856 | 0.91 | 0.943 | 0.877 | 0.676 |
| COR-L 105 | 1.01 | 0.98 | – | 0.544 | 0.602 | 0.602 | 0.578 | 0.551 | 1.02 | 1.4 | 0.897 | 0.674 | 0.798 | 0.317 | 1.04 | 0.967 | 1.1 | 1.12 | 0.931 |
| CAL-12T | 0.973 | 1.16 | 0.492 | 0.712 | 0.658 | 0.739 | 0.866 | 0.648 | 1.05 | 1.11 | 0.233 | 0.185 | 0.655 | 0.0938 | 1.45 | 1.13 | 1.19 | 1.14 | 1.18 |
| A-427 | – | 0.914 | 0.788 | 0.699 | 0.694 | 0.698 | 0.856 | 0.718 | 0.952 | 1.1 | 0.498 | 0.978 | 0.79 | 0.516 | 0.954 | 0.971 | 0.982 | 0.821 | 0.763 |
| NCI-H1975 | 0.297 | 0.283 | 0.236 | 0.658 | 0.866 | 0.78 | 0.913 | 0.475 | 1.2 | 0.911 | 0.497 | 0.23 | 0.138 | 0.167 | 0.27 | 0.283 | 0.296 | 0.277 | 0.313 |
| NCI-H1993 | 0.518 | 0.555 | 0.436 | 0.903 | 1.06 | 1.18 | 0.986 | 1.06 | 0.766 | 0.746 | 0.553 | – | 0.785 | 0.499 | 0.586 | 0.616 | 0.637 | 0.606 | 0.517 |
| NCI-H2023 | 0.258 | 0.186 | 0.123 | 0.508 | 0.543 | 0.562 | 0.541 | 0.447 | 0.656 | 0.739 | 0.461 | 0.792 | 0.828 | 0.215 | 0.255 | 0.298 | 0.201 | 0.233 | 0.183 |
| 201T | 0.334 | 0.332 | 0.323 | 0.829 | 0.837 | 0.802 | 0.905 | 0.706 | 1.12 | 0.96 | 0.403 | 0.964 | 0.992 | 0.69 | 0.281 | 0.387 | 0.368 | 0.356 | 0.29 |
| LK-2 | 0.271 | 0.229 | 0.175 | 0.645 | 0.804 | 0.63 | 0.754 | 0.766 | 1.14 | 1.28 | 0.316 | 0.169 | 0.157 | 0.167 | 0.255 | 0.28 | 0.245 | 0.207 | 0.133 |
| SW 1573 | 0.843 | 0.732 | 0.396 | 0.337 | 0.491 | 0.496 | 0.508 | 0.484 | 0.916 | 0.951 | 0.599 | 0.185 | 0.0996 | 0.0857 | 0.86 | 0.97 | 1.08 | 0.96 | 0.459 |
| NCI-H647 | 0.18 | 0.148 | 0.106 | 0.423 | 0.536 | 0.583 | 0.572 | 0.3 | 1.09 | 1.21 | 1.16 | 0.133 | 0.108 | 0.264 | 0.177 | 0.167 | 0.199 | 0.194 | 0.165 |
| SW 900 | 0.548 | 0.443 | 0.449 | 0.65 | 0.755 | 0.838 | 0.938 | 0.87 | 0.86 | 0.802 | 0.638 | 0.164 | 0.154 | 0.158 | 0.502 | 0.429 | 0.452 | 0.454 | 0.448 |
| BEN | 0.843 | 0.728 | 0.682 | 0.976 | 1.21 | 1.03 | 1.05 | 0.853 | 0.736 | 0.509 | 0.555 | 0.444 | 0.172 | 0.34 | 0.812 | 0.727 | 0.78 | 0.703 | 0.769 |
